This is an account of results in patent US7473692B2, “Sulfonamide derivatives as D3-receptor ligands” (Richter Gedeon Vegyeszeti Gyar Rt., priority 2001, dated 2009).

One may read the melting point as the temperature of the solid-liquid transition. One may read the IC50 as the concentration at which inhibition is half-maximal.

Data set [1] concerns the target T1, rat recombinant D3 receptors expressed in Sf9 cells (Rattus norvegicus, UniProt P19020).
T1 construct: purchased Research Biochemical International D-181; host or cells: Sf9 cells
As to the kind of experiment: D3 receptor binding ([3H]-spiperone). The conditions noted are these: [3H]-spiperone 0.4 nM; non-specific binding with haloperidol 10 μM. How it is done: Binding study was carried out on rat recombinant D3 receptors expressed in Sf9 cells using [^3H]-spiperone (0.4 nM) as ligand and haloperidol (10 μM) for determination of non-specific binding.

For data set [2], the target named is T2, D2 receptor, rat striatal tissue (Rattus norvegicus, UniProt P61169).
T2 construct: from tissue; host or cells: rat striatal tissue
Nature of the data set: D2 receptor binding ([3H]-spiperone). Conditions: [3H]-spiperone 0.5 nM, non-specific binding with (±)-sulpiride 10 μM. As for the experimental part: Binding of [^3H]-spiperone (0.5 nM) to rat striatal tissue was measured according to the method of Seeman (J. Neurochem., 1984, 43 221-235). The non-specific binding was determined in the presence of (±)-sulpiride (10 μM).

Counter-ions that a name gives are not always drawn.

T2 sequence (P61169 whole entry): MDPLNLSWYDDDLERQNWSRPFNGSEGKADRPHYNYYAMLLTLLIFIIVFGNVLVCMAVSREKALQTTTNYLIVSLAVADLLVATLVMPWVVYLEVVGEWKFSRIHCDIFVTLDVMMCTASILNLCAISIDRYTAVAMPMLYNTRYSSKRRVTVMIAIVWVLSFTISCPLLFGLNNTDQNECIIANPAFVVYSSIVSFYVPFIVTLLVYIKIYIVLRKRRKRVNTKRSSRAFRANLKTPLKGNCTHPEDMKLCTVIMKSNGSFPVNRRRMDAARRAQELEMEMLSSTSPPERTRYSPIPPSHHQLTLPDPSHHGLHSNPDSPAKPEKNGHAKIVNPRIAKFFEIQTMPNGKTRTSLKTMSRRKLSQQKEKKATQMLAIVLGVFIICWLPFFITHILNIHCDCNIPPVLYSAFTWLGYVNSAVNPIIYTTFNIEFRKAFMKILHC
T1 sequence (P19020 whole entry): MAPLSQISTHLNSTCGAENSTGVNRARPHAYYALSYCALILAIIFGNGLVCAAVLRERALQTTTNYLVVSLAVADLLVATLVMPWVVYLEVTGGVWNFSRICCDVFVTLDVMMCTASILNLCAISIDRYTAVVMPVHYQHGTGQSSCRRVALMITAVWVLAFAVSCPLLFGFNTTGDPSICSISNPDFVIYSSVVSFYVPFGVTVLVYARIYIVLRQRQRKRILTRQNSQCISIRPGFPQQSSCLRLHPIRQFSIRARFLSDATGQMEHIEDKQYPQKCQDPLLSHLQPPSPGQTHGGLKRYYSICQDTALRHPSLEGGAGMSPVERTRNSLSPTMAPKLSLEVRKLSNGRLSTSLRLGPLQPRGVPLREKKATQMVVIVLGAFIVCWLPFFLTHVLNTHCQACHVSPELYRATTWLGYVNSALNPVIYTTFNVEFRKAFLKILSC

Take `COc1cc(-c2ccccc2)ccc1N1CCN(CC[C@H]2CC[C@H](NS(=O)(=O)N(C)C)CC2)CC1` (as salt: hydrochloride) [compound 70001488, Trans-N′-(4-{2-[4-(3-methoxy-biphenyl-4-yl)-piperazin-1-yl]-ethyl}-cyclohexyl)-N,N-dimethyl]: the melting point lay in the range of 243 to 246 °C.

On to `CCCCS(=O)(=O)N[C@H]1CC[C@H](CCN2CCN(c3ccc(-c4ccccc4)cc3OC)CC2)CC1` [compound 70001485, Trans-N-(4-{2-[4-(3-methoxy-biphenyl-4-yl)-piperazin-1-yl]-ethyl}-cyclohexyl)-buthanesulfonamide], for which the IC50 in data set [1] was 5.5 nM; in data set [2] it was 2590 nM.

Consider `COc1cc(-c2ccccc2)ccc1N1CCN(CC[C@H]2CC[C@H](NS(=O)(=O)N(C)C)CC2)CC1` [compound 70001488, Trans-N′-(4-{2-[4-(3-methoxy-biphenyl-4-yl)-piperazin-1-yl]-ethyl}-cyclohexyl)-N,N-dimethyl], for which the IC50 was determined as 4.3 nM in data set [1] and 245 nM in data set [2].

For `N#Cc1cc(N2CCN(CC[C@H]3CC[C@H](NS(=O)(=O)c4ccc(Cl)cc4)CC3)CC2)cc(C(F)(F)F)c1` [compound 70001492, Trans-4-chloro-N-(4-{2-[4-(3-cyano-5-trifluoromethyl-phenyl)-piperazin-1-yl]-ethyl}-cyclohexyl)-benzenesulfonamide], the IC50 in data set [1] came out at 2 nM; in data set [2], 65 nM.

For the compound `CCCCS(=O)(=O)N[C@H]1CC[C@H](CCN2CCC(Nc3cccc(C(F)(F)F)c3)CC2)CC1` [compound 70001588, Trans-N-(4-{2-[4-(3-trifluoromethyl-phenylamino)-piperidin-1-yl]-ethyl}-cyclohexyl)-buthanesulfonamide], the IC50 in data set [1] came out at 2.5 nM; in data set [2] it was 102 nM.

On to `O=S(=O)(N[C@H]1CC[C@H](CCN2CCC(Nc3cccc(C(F)(F)F)c3)CC2)CC1)c1ccc(Cl)cc1` [compound 70001589, Trans-4-chloro-N-(4-{2-[4-(3-trifluoromethyl-phenylamino)-piperidin-1-yl]-ethyl}-cyclohexyl)-benzenesulfonamide], for which the IC50 is 3 nM in data set [1] and 16 nM in data set [2].

Take `CCCCS(=O)(=O)N[C@H]1CC[C@H](CCN2CCN(c3cccc(C(F)(F)F)c3)CC2)CC1` [compound 70001596, Trans-N-(4-{2-[4-(3-trifluoromethyl-phenyl)-piperazin-1-yl]-ethyl}-cyclohexyl)-buthanesulfonamide]: the values for the IC50 in data set [1] and in data set [2] were 0.6 nM and 110 nM, respectively.

Consider `O=S(=O)(N[C@H]1CC[C@H](CCN2CCC(Cc3cccc(F)c3)CC2)CC1)c1ccc(Cl)cc1` [compound 70001686, Trans-4-chloro-N-(4-{2-[4-(3-fluoro-phenylmethyl)-piperidin-1-yl]-ethyl}-cyclohexyl)-benzenesulfonamide], for which the IC50 in data set [1] is 3.9 nM; in data set [2], 345 nM.

For the compound `N#Cc1cc(N2CCN(CC[C@H]3CC[C@H](NS(=O)(=O)c4ccc(Cl)s4)CC3)CC2)cc(C(F)(F)F)c1` [compound 70001766, Trans-5-chloro-N-(4-{2-[4-(3-cyano-5-trifluoromethyl-phenyl)-piperazin-1-yl]-ethyl}-cyclohexyl)-2-thiophenesulfonamide], the IC50 in data set [1] came to 5.3 nM; in data set [2], 128 nM.

With `CN(C)S(=O)(=O)N[C@H]1CC[C@H](CCN2CCN(c3cc(C#N)cc(C(F)(F)F)c3)CC2)CC1` [compound 70001788, Trans-N′-(4-{2-[4-(3-cyano-5-trifluoromethyl-phenyl)-piperazin-1-yl]-ethyl}-cyclohexyl)-N,N-dimethyl-sulfamide], the IC50 in data set [1] is 1.5 nM; in data set [2], 290 nM.

With `O=S(=O)(N[C@H]1CC[C@H](CCN2CCC(Oc3cccc(C(F)(F)F)c3)CC2)CC1)c1cccnc1` [compound 70001875, Trans-N-(4-{2-[4-(3-trifluoromethyl-phenoxy)-piperidin-1-yl]-ethyl}-cyclohexyl)-3-pyridinesulfonamide], the results for the IC50 in data set [1] and in data set [2] were 2.8 nM and 66 nM, respectively.

Regarding `O=S(=O)(CCCN1CCOCC1)N[C@H]1CC[C@H](CCN2CCN(c3cccc(C(F)(F)F)c3)CC2)CC1` [compound 70001934, Trans-N-(4-{2-[4-(3-trifluoromethyl-phenyl)-piperazin-1-yl]-ethyl}-cyclohexyl)-4-morpholinepropanesulfonamide], the IC50 in data set [1] stood at 1 nM; in data set [2], 109 nM.

For the compound `O=S(=O)(N[C@H]1CC[C@H](CCN2CCN(c3cccc(C(F)(F)F)c3)CC2)CC1)c1cccnc1` [compound 70001935, Trans-N-(4-{2-[4-(3-trifluoromethyl-phenyl)-piperazin-1-yl]-ethyl}-cyclohexyl)-3-pyridinesulfoamide], the IC50 in data set [1] was 0.3 nM; in data set [2] it was 29 nM.
